The source of these data is publication PMC6990405, “Synthesis and Structure–Activity relationship of 1-(5-isoquinolinesulfonyl)piperazine analogues as inhibitors of Mycobacterium tuberculosis IMPDH” (European Journal of Medicinal Chemistry, 2019).

Converted amounts (≈) assume the structure as drawn.

The experiment has as its system M. tuberculosis SRMV2.6 (IMPDH Tyr487Cys). It counts as cell-based, Mycobacterium tuberculosis.
On to `O=C(Nc1cccc(Cl)c1Cl)N1CCN(S(=O)(=O)c2cccc3cnccc23)CC1` [Compound 37, N-(2,3-dichlorophenyl)-4-(isoquinolin-5-ylsulfonyl)piperazine-1-carboxamide], for which the “MIC90 against SRMV2.6” value is more than 250 µM. `COc1cc(C(=O)N2CCN(S(=O)(=O)c3cccc4cnccc34)CC2)cc(OC)c1OC` [Compound 20, [4-(isoquinoline-5-sulfonyl)piperazin-1-yl](3,4,5-trimethoxyphenyl)methanone]: the “MIC90 against SRMV2.6” value was more than 125 µM.

As for `O=C(Nc1ccc(F)c(Cl)c1)N1CCN(S(=O)(=O)c2cccc3cnccc23)CC1` [Compound 36, N-(3-chloro-4-fluorophenyl)-4-(isoquinolin-5-ylsulfonyl)piperazine-1-carboxamide], the “MIC90 against SRMV2.6” value was 62.5 µM (≈ 28.1 µg/mL).

Regarding `COc1ccc(CC(=O)N2CCN(S(=O)(=O)c3cccc4cnccc34)CC2)c(OC)c1` [Compound 27, 1-[4-(isoquinoline-5-sulfonyl)piperazin-1-yl]-2-(2,4-dimethoxyphenyl)ethan-1-one], the “MIC90 against SRMV2.6” value was more than 250 µM. The same measure, in the same setting: with `Cc1cc2c(S(=O)(=O)N3CCN(C(=O)C4CCCCC4)CC3)cccc2cn1` [Compound 6, Cyclohexyl[4-(3-methylisoquinoline-5-sulfonyl)piperazin-1-yl]methanone] the figure was more than 100 µM; with `N#Cc1cccc(C(=O)N2CCN(S(=O)(=O)c3cccc4cnccc34)CC2)c1` [Compound 16, 3-[4-(isoquinoline-5-sulfonyl)piperazine-1-carbonyl]benzonitrile], 50 µM (≈ 20.3 µg/mL). On the same count and under the same terms, with `O=C(C1CCCCC1)N1CCC(NS(=O)(=O)c2cccc3cnccc23)CC1` [Compound 5, N-[1-(cyclohexanecarbonyl)piperidin-4-yl]isoquinoline-5-sulfonamide] the figure was more than 100 µM; with `CC1CN(S(=O)(=O)c2cccc3cnccc23)CCN1C(=O)C1CCCCC1` (stereo not shown) [Compound 3, Cyclohexyl[4-(isoquinoline-5-sulfonyl)-2-methylpiperazin-1-yl]methanone], 100 µM (≈ 40.2 µg/mL).

With `O=C(CC1CCC2(CC1)OCCO2)N1CCN(S(=O)(=O)c2cccc3cnccc23)CC1` [Compound 23, 2-(1,4-dioxaspiro[4.5]decan-8-yl)-1-[4-(isoquinoline-5-sulfonyl)piperazin-1-yl]ethan-1-one], the “MIC90 against SRMV2.6” value is more than 250 µM. Same read-out and setting: with `COc1cccc(CC(=O)N2CCN(S(=O)(=O)c3cccc4cnccc34)CC2)c1` [Compound 26, 1-[4-(isoquinoline-5-sulfonyl)piperazin-1-yl]-2-(3-methoxyphenyl)ethan-1-one] the figure was more than 250 µM.

As to `O=C(Nc1cccc(C(F)(F)F)c1)N1CCN(S(=O)(=O)c2cccc3cnccc23)CC1` [Compound 32, 4-(isoquinolin-5-ylsulfonyl)-N-(3-(trifluoromethyl)phenyl)piperazine-1-carboxamide], the “MIC90 against SRMV2.6” value was 125 µM (≈ 58.1 µg/mL).

Turning to `O=C(NCCNS(=O)(=O)c1cccc2cnccc12)C1CCCCC1` [Compound 2, N-{2-[(isoquinoline-5-sulfonyl)amino]ethyl}cyclohexanecarboxamide], the “MIC90 against SRMV2.6” value was more than 250 µM.

In the case of `O=C(OCc1ccccc1)N1CCN(S(=O)(=O)c2cccc3cnccc23)CC1` [Compound 49, Benzyl 4-(isoquinolin-5-ylsulfonyl)piperazine-1-carboxylate], the “MIC90 against SRMV2.6” value amounted to 100 µM (≈ 41.1 µg/mL). Still for that read-out and setting: with `O=S(=O)(c1cccc2cnccc12)N1CCN(C(=S)Nc2ccc3c(c2)OCO3)CC1` [Compound 42, N-(benzo[d][1,3]dioxol-5-yl)-4-(isoquinolin-5-ylsulfonyl)piperazine-1-carbothioamide] the figure was more than 100 µM. Still for that read-out and setting: with `O=C(C1CCCCC1)N1CCN(S(=O)(=O)c2cccc3ccccc23)CC1` [Compound 7, Cyclohexyl[4-(naphthalene-1-sulfonyl)piperazin-1-yl]methanone] the figure was more than 100 µM; with `O=C(c1ccccc1)N1CCN(S(=O)(=O)c2cccc3cnccc23)CC1` [Compound 15, [4-(isoquinoline-5-sulfonyl)piperazin-1-yl](phenyl)methanone], more than 100 µM.

For the compound `O=C(NCCNS(=O)(=O)c1cccc2cnccc12)C1CCC1` [Compound 10, N-{2-[(isoquinoline-5-sulfonyl)amino]ethyl}cyclobutanecarboxamide], the “MIC90 against SRMV2.6” value was 100 µM (≈ 33.3 µg/mL). `Cc1ccc(NC(=O)N2CCN(S(=O)(=O)c3cccc4cnccc34)CC2)c([N+](=O)[O-])c1` [Compound 39, 4-(isoquinolin-5-ylsulfonyl)-N-(4-methyl-2-nitrophenyl)piperazine-1-carboxamide]: the “MIC90 against SRMV2.6” value turned out to be 25 µM (≈ 11.4 µg/mL). On the same count and under the same terms, with `O=C(C1CCCCC1)N1CCN(S(=O)(=O)c2ccc3ccccc3c2)CC1` [Compound 8, Cyclohexyl[4-(naphthalene-2-sulfonyl)piperazin-1-yl]methanone] the figure was more than 100 µM; with `N#Cc1ccc(C(=O)N2CCN(S(=O)(=O)c3cccc4cnccc34)CC2)cc1` [Compound 17, 4-[4-(isoquinoline-5-sulfonyl)piperazine-1-carbonyl]benzonitrile], 100 µM (≈ 40.6 µg/mL). Consider `CC1(C(=O)N2CCN(S(=O)(=O)c3cccc4cnccc34)CC2)CCCCC1` [Compound 12, [4-(isoquinoline-5-sulfonyl)piperazin-1-yl](1-methylcyclohexyl)methanone], for which the “MIC90 against SRMV2.6” value was more than 250 µM.

For the compound `O=C(Cc1ccc(F)cc1)N1CCN(S(=O)(=O)c2cccc3cnccc23)CC1` [Compound 29, 2-(4-fluorophenyl)-1-(4-(isoquinolin-5-ylsulfonyl)piperazin-1-yl)ethan-1-one], the “MIC90 against SRMV2.6” value was more than 100 µM. Still for that read-out and setting: in the case of `O=C(Nc1ccc(Cl)cc1)N1CCN(S(=O)(=O)c2cccc3cnccc23)CC1` [Compound 33, N-(4-chlorophenyl)-4-(isoquinolin-5-ylsulfonyl)piperazine-1-carboxamide] it was more than 250 µM. On the same count and under the same terms, in the case of `O=C(NCCNS(=O)(=O)c1cccc2cnccc12)C1CC1` [Compound 9, N-{2-[(isoquinoline-5-sulfonyl)amino]ethyl}cyclopropanecarboxamide] it was 100 µM (≈ 31.9 µg/mL). Still for that read-out and setting: with `N#Cc1cccc(NC(=O)N2CCN(S(=O)(=O)c3cccc4cnccc34)CC2)c1` [Compound 31, N-(3-cyanophenyl)-4-(isoquinolin-5-ylsulfonyl)piperazine-1-carboxamide] the figure was 31.2 µM (≈ 13.2 µg/mL); with `O=C(NC1CCN(S(=O)(=O)c2cccc3cnccc23)CC1)C1CCCCC1` [Compound 4, N-[1-(isoquinoline-5-sulfonyl)piperidin-4-yl]cyclohexanecarboxamide], more than 100 µM. As to `O=C(c1cc([N+](=O)[O-])cc([N+](=O)[O-])c1)N1CCN(S(=O)(=O)c2cccc3cnccc23)CC1` [Compound 19, [4-(isoquinoline-5-sulfonyl)piperazin-1-yl](3,5-dinitrophenyl)methanone], the “MIC90 against SRMV2.6” value was 100 µM (≈ 47.1 µg/mL). `O=C(Nc1ccc2c(c1)OCO2)N1CCN(S(=O)(=O)c2cccc3cnccc23)CC1` [Compound 41, N-(benzo[d][1,3]dioxol-5-yl)-4-(isoquinolin-5-ylsulfonyl)piperazine-1-carboxamide]: the “MIC90 against SRMV2.6” value was more than 100 µM. For the compound `O=C(NCCNS(=O)(=O)c1cccc2cnccc12)c1cc([N+](=O)[O-])cc([N+](=O)[O-])c1` [Compound 21, N-{2-[(isoquinoline-5-sulfonyl)amino]ethyl}-3,5-dinitrobenzamide], the “MIC90 against SRMV2.6” value stood at 3.9 µM (≈ 1.74 µg/mL) and the “fold more active against SRMV2.6 than wild-type M. tuberculosis” value is recorded as 4 fold. On to `O=C(Cc1ccc([N+](=O)[O-])cc1)N1CCN(S(=O)(=O)c2cccc3cnccc23)CC1` [Compound 30, 1-(4-(isoquinolin-5-ylsulfonyl)piperazin-1-yl)-2-(4-nitrophenyl)ethan-1-one], for which the “MIC90 against SRMV2.6” value is more than 250 µM. On the same count and under the same terms, in the case of `N#Cc1cccc(CC(=O)N2CCN(S(=O)(=O)c3cccc4cnccc34)CC2)c1` [Compound 24, 3-{2-[4-(isoquinoline-5-sulfonyl)piperazin-1-yl]-2-oxoethyl}benzonitrile] it was more than 250 µM; in that of `Cc1ccc(NC(=O)N2CCN(S(=O)(=O)c3cccc4cnccc34)CC2)cc1Cl` [Compound 38, N-(3-chloro-4-methylphenyl)-4-(isoquinolin-5-ylsulfonyl)piperazine-1-carboxamide], 100 µM (≈ 44.5 µg/mL); in that of `O=C(Nc1ccc(Cl)c([N+](=O)[O-])c1)N1CCN(S(=O)(=O)c2cccc3cnccc23)CC1` [Compound 35, N-(4-chloro-3-nitrophenyl)-4-(isoquinolin-5-ylsulfonyl)piperazine-1-carboxamide], more than 100 µM. Still for that read-out and setting: in the case of `O=C(Nc1ccc2c(c1)OCO2)N1CCC(NS(=O)(=O)c2cccc3cnccc23)CC1` [Compound 43, 4-[(isoquinoline-5-sulfonyl)amino]-N-(2H-1,3-benzodioxol-5-yl)piperidine-1-carboxamide] it was more than 100 µM.

As to `Cc1cccc(Cl)c1NC(=O)N1CCN(S(=O)(=O)c2cccc3cnccc23)CC1` [Compound 40, N-(2-chloro-6-methylphenyl)-4-(isoquinolin-5-ylsulfonyl)piperazine-1-carboxamide], the “MIC90 against SRMV2.6” value is more than 250 µM. Same read-out and setting: with `O=C(Cc1cccc(O)c1)N1CCN(S(=O)(=O)c2cccc3cnccc23)CC1` [Compound 25, 2-(3-hydroxyphenyl)-1-[4-(isoquinoline-5-sulfonyl)piperazin-1-yl]ethan-1-one] the figure was more than 250 µM; with `CC(C)(C)C(=O)N1CCN(S(=O)(=O)c2cccc3cnccc23)CC1` [Compound 11, 1-[4-(isoquinoline-5-sulfonyl)piperazin-1-yl]-2,2-dimethylpropan-1-one], 100 µM (≈ 36.1 µg/mL); with `O=C(Nc1ccc(Cl)c(C(F)(F)F)c1)N1CCN(S(=O)(=O)c2cccc3cnccc23)CC1` [Compound 34, N-(4-chloro-3-(trifluoromethyl)phenyl)-4-(isoquinolin-5-ylsulfonyl)piperazine-1-carboxamide], 50 µM (≈ 24.9 µg/mL). On to `Cc1cccc(CC(=O)N2CCN(S(=O)(=O)c3cccc4cnccc34)CC2)c1` [Compound 28, 1-(4-(isoquinolin-5-ylsulfonyl)piperazin-1-yl)-2-(m-tolyl)ethan-1-one], for which the “MIC90 against SRMV2.6” value is more than 250 µM.
